Tests used:
[1] = Cytotoxicity against human MT4 cells assessed as cell viability after 96 hrs by MTT assay; type: cell-based
[2] = Cytotoxicity against MDBK cells assessed as cell viability after 48 to 96 hrs by MTT assay; type: cell-based, Bos taurus; conditions: cattle
[3] = Cytotoxicity against BHK cells assessed as cell viability after 48 to 96 hrs by MTT assay; type: cell-based, Mesocricetus auratus; conditions: hamster
[4] = tested on: Bovine viral diarrhea virus 1; assay: Antiviral activity against BVDV infected in MDBK cells assessed as inhibition of virus-induced cytopathogenicity after 3 to 4 days by MTT assay; type: functional, organism-based; conditions: Bovine viral diarrhea virus isolates and strains
Yellow fever virus = assay: Antiviral activity against YFV infected in BHK-21 cells assessed as inhibition of virus-induced cytopathogenicity after 3 to 4 days by MTT assay; type: functional, organism-based
[5] = tested on: Human immunodeficiency virus 1; assay: Antiviral activity against HIV-1 infected in MT4 cells assessed as inhibition of virus-induced cytopathogenicity after 4 days by MTT assay; type: functional, organism-based; conditions: Human immunodeficiency virus 1, MT4, 96 h
[6] = Cytotoxicity against african green monkey Vero 76 cells assessed as cell viability after 48 to 96 hrs by crystal violet staining method; type: cell-based; conditions: chlorocebus sabaeus
Coxsackievirus B5 = assay: Antiviral activity against human CVB5 infected in african green monkey Vero76 cells assessed as inhibition of virus-induced cytopathogenicity after 3 days by plaque reduction assay; type: functional, organism-based; conditions: Enterovirus B, Vero 76, 72 h
Human orthopneumovirus = assay: Antiviral activity against human RSV infected in african green monkey Vero76 cells assessed as inhibition of virus-induced cytopathogenicity after 5 days by plaque reduction assay; type: functional, organism-based; conditions: human respiratory syncytial virus, Vero 76, 120 h
[7] = tested on: Vesicular stomatitis virus; assay: Antiviral activity against VSV; type: functional, organism-based
Vaccinia virus = assay: Antiviral activity against Vaccinia virus; type: functional, organism-based; conditions: Orthopoxvirus vaccinia
Poliovirus 1 = assay: Antiviral activity against Human poliovirus 1 Sabin infected in african green monkey Vero76 cells assessed as inhibition of virus-induced cytopathogenicity by plaque reduction assay; type: functional, organism-based; conditions: Enterovirus C, Vero 76

Row | Structure (SMILES) | CC50 at 96 h [1] | CC50 [2] | CC50 [3] | EC50 [4] | EC50 (Yellow fever virus) | EC50 [5] | CC50 [6] | EC50 (Coxsackievirus B5) | EC50 (Human orthopneumovirus) | EC50 [7] | EC50 (Vaccinia virus) | EC50 (Poliovirus 1)
1 | Cc1cc2nnn(C3CCCO3)c2cc1C (configuration not stated) | > 100 µM | > 100 µM | > 100 µM | > 100 µM | > 100 µM | > 100 µM | – | – | – | – | – | –
2 | CN(C)C(=O)Cn1nc2ccccc2n1 | > 100 µM | > 100 µM | > 100 µM | > 100 µM | > 100 µM | > 100 µM | > 100 µM | > 100 µM | > 100 µM | > 100 µM | > 100 µM | –
3 | Clc1cc2nnn(C3CCCO3)c2cc1Cl (configuration not stated) | > 100 µM | > 100 µM | > 100 µM | > 100 µM | > 100 µM | > 100 µM | – | – | – | – | – | –
4 | O=C(Cn1nc2ccccc2n1)N1CCOCC1 | > 100 µM | > 100 µM | > 100 µM | > 100 µM | > 100 µM | > 100 µM | > 100 µM | > 100 µM | > 100 µM | > 100 µM | > 100 µM | –
5 | COc1cc(C(=O)OCCCn2nnc3ccccc32)cc(OC)c1OC | > 100 µM | ≥ 100 µM | > 100 µM | > 100 µM | > 100 µM | > 100 µM | 100 µM | > 100 µM | > 100 µM | > 100 µM | > 100 µM | –
6 | NNC(=O)Cn1nnc2ccccc21 | > 100 µM | > 100 µM | > 100 µM | > 100 µM | > 100 µM | > 100 µM | > 100 µM | > 100 µM | > 100 µM | > 100 µM | > 100 µM | –
7 | O=C(Cn1nnc2ccccc21)N1CCOCC1 | > 100 µM | > 100 µM | > 100 µM | > 100 µM | > 100 µM | > 100 µM | > 100 µM | > 100 µM | > 100 µM | > 100 µM | > 100 µM | –
8 | Clc1c(Cl)c(Cl)c2c(nnn2C2CCCO2)c1Cl (configuration not stated) | 95 µM | – | – | – | – | > 100 µM | – | – | – | – | – | –
9 | COc1cc(/C=C/C(=O)OCCCn2nnc3ccccc32)cc(OC)c1OC | > 100 µM | 83 µM | > 100 µM | > 100 µM | > 100 µM | > 100 µM | > 100 µM | > 100 µM | > 100 µM | > 100 µM | > 100 µM | –
10 | COc1cc(/C=C/C(=O)OCCn2nnc3ccccc32)cc(OC)c1OC | 45 µM | 70 µM | > 100 µM | > 100 µM | > 100 µM | > 100 µM | > 100 µM | > 100 µM | > 100 µM | > 100 µM | > 100 µM | –
11 | Clc1cc2nn(C3CCCO3)nc2cc1Cl (configuration not stated) | > 100 µM | > 100 µM | > 100 µM | > 100 µM | > 100 µM | > 100 µM | – | – | – | – | – | –
12 | CC(CC(=O)O)n1nc2ccc3ccccc3c2n1 (configuration not stated) | > 100 µM | > 100 µM | > 100 µM | > 100 µM | > 100 µM | > 100 µM | > 100 µM | > 100 µM | > 100 µM | > 100 µM | > 100 µM | –
13 | COc1cc(C(=O)OCCn2nc3ccccc3n2)cc(OC)c1OC | 0.3 µM | 6 µM | 26 µM | > 100 µM | > 100 µM | > 100 µM | 1.6 µM | > 100 µM | > 100 µM | > 100 µM | > 100 µM | –
14 | CC(CC(=O)O)n1nnc2ccc([N+](=O)[O-])cc21 (configuration not stated) | > 100 µM | > 100 µM | > 100 µM | > 100 µM | > 100 µM | > 100 µM | > 100 µM | > 100 µM | > 100 µM | > 100 µM | > 100 µM | –
15 | C[C@H](Oc1ccc(-n2nc3ccccc3n2)cc1)C(=O)O | > 100 µM | > 100 µM | > 100 µM | > 100 µM | > 100 µM | > 100 µM | > 100 µM | > 100 µM | > 100 µM | > 100 µM | > 100 µM | > 100 µM
16 | CC(CC(=O)O)n1nc2ccc([N+](=O)[O-])cc2n1 (configuration not stated) | > 100 µM | > 100 µM | > 100 µM | > 100 µM | > 100 µM | > 100 µM | > 100 µM | > 100 µM | > 100 µM | > 100 µM | > 100 µM | –
17 | CN(C)c1cccc(C(=O)OCCn2nnc3ccccc32)c1 | 65 µM | ≥ 100 µM | > 100 µM | > 100 µM | > 100 µM | > 100 µM | ≥ 100 µM | > 100 µM | > 100 µM | > 100 µM | > 100 µM | –
18 | COc1cc(C(=O)OCCn2nnc3ccccc32)cc(OC)c1OC | 1.9 µM | 40 µM | 70 µM | > 100 µM | > 100 µM | > 100 µM | 80 µM | > 100 µM | > 100 µM | > 100 µM | > 100 µM | –
19 | COc1cc(C(=O)OCCCn2nc3ccccc3n2)cc(OC)c1OC | > 100 µM | > 100 µM | > 100 µM | > 100 µM | > 100 µM | > 100 µM | > 100 µM | > 100 µM | > 100 µM | > 100 µM | > 100 µM | –
20 | COc1cc(/C=C/C(=O)OCCn2nc3ccccc3n2)cc(OC)c1OC | ≥ 100 µM | > 100 µM | > 100 µM | > 100 µM | > 100 µM | > 100 µM | > 100 µM | > 100 µM | > 100 µM | > 100 µM | > 100 µM | –
21 | C[C@@H](Oc1ccc(-n2nc3ccccc3n2)cc1)C(=O)O | > 100 µM | > 100 µM | > 100 µM | > 100 µM | > 100 µM | > 100 µM | > 100 µM | > 100 µM | > 100 µM | > 100 µM | > 100 µM | > 100 µM
22 | CN(C)C(=O)Cn1nnc2ccccc21 | > 100 µM | > 100 µM | > 100 µM | > 100 µM | > 100 µM | > 100 µM | > 100 µM | > 100 µM | > 100 µM | > 100 µM | > 100 µM | –
23 | CN1CCN(CCn2nnc3ccccc32)CC1 | > 100 µM | > 100 µM | > 100 µM | > 100 µM | > 100 µM | > 100 µM | > 100 µM | > 100 µM | > 100 µM | > 100 µM | > 100 µM | –
24 | NCCn1nnc2ccccc21 | > 100 µM | > 100 µM | > 100 µM | > 100 µM | > 100 µM | > 100 µM | > 100 µM | > 100 µM | > 100 µM | > 100 µM | > 100 µM | –

From ChEMBL document CHEMBL3734667 (Bioorg Med Chem, 2015)
